According to patent publication US20070082905A1, “PHARMACEUTICAL COMPOSITIONS COMPRISING N-TRIAZOLYMETHYL-PIPERAZINE COMPOUNDS AND METHODS OF USING SAME” (priority 2005, published 2007):
Where a name gives a salt, the structure may show the parent alone.

Legend:
[1] = Pharmacokinetics after a single oral dose in healthy male volunteers (plasma, HPLC-MS/MS); format: in vivo, human
Method: (§1) The pharmacokinetics after a single oral dose of the dihydrochloride salt of Compound D ((2R)-1-[3,5-bis(trifluoromethyl)benzoyl]-2-(1H-indol-3-ylmethyl)-4-{[5-(morpholinomethyl)-2H-1,2,3-triazol-4-yl]methyl}piperazine-dihydrochloride) were assessed in healthy male volunteers. Pharmacodynamic effects were also evaluated by measuring the antagonism of Substance P-induced venodialation using the hand vein compliance technique.
Nineteen healthy male non-smokers participated in a randomized, double-blind, placebo-controlled, cross-over study after each gave written informed consent. Only healthy volunteers without concurrent drug use were included in the study. […] Further exclusion criteria were: a history of allergies, known conditions causing endothelial dysfunction as diabetes, hyperlipidemia, arterial hypertension, hyperhomocysteinemia, and smoking, regular medication or treatment with drugs within the last 2 weeks, acute or chronic illness, and drug or alcohol abuse.
Next, Compound D as described herein (250 mg and 25 mg quinine sulphate) or placebo (25 mg quinine sulphate), both dissolved in water for injection and mint syrup, were administered as an oral solution. Quinine was added for blinding to mimic the bitter taste of Compound D and mint syrup to disguise the slightly yellowish colour as well as bitter taste. The infusion of Substance P (same dose as before study drug administration) was repeated at the following time points: 0.5 h, 1.25 h, 2 h, 2.75 h, 3.5 h, and 4.25 h after dosing. Each peptide application was separated by a wash-out phase of 45 min to avoid the occurrence of tolerance.
Venous blood samples for Compound D were taken 0.25 h before as well as 0.25 h, 0.5 h, 0.75 h, 1 h, 1.25 h, 2.0 h, 2.75 h, 3.5 h, 4.25 h, 6 h, 8 h, 12 h, and 24 h after administration. Blood was drawn into vials containing dry heparin, immediately stored on ice (+4° C.) and plasma was separated within 30 min at 3500 rpm for 10 min. The samples were stored at −20° C. until analysis. When time points of pharmacodynamic (hand vein compliance method) and pharmacokinetic measurements coincided the pharmacodynamic measurements were first finished before blood samples were taken, accepting a delay for pharmacokinetic sampling of about 5 min.
The plasma samples were then analyzed by extracting Compound D and its internal standard from plasma with diethylether, concentration and injection into an HPLC system with MS/MS detection. Accuracy and precision were within specifications; bias was <12%; the inter-day coefficient of variation was <14%. The lower limit of quantification was set at 0.2 ng/ml.
(§2) Source verification of all data documented in case report forms was performed by an independent clinical monitor. Nineteen individuals were randomized and thus included in the safety analysis. Only the randomized participants who completed both dosing sessions according to protocol were included in the pharmacodynamic analysis (n=17). Two participants had to be withdrawn due to methodological problems during hand vein measurements. One of these two was exposed to Compound D and complete pharmacokinetic data were obtained leading to data sets of 18 participants for pharmacokinetic analysis.
The area under the effect-time curve (AUCe) was calculated according to the trapezoidal rule. Statistical analysis of AUCe was performed using a mixed model analysis of variance (ANOVA) including the factors subject, sequence, period, and treatment. Pharmacokinetic calculations were performed using WinNonlin Professional 4.0.1 for Windows (Pharsight Corporation, Mountain View, Calif. 94040, USA). Differences in vital signs and dose-rates were assessed with Wilcoxon signed rank test, unless stated otherwise. Data are expressed as mean±SEM. A p-value of less than 0.05 was considered significant.

[2] = Safety assessment (ECG, pulse rate, blood pressure, laboratory, adverse events) in healthy male volunteers; format: in vivo, human
Method: Dose-rates administered locally into the hand vein were intended not to result in any systemic effects which were monitored by repeated measurements of heart rate and blood pressure. Blood pressure was taken before and after every infusion of drugs or solvents (sodium chloride, phenylephrine, Substance P); a 12-lead ECG was monitored continuously up to the end of the hand vein compliance measurements.
Safety was assessed by measuring ECG, pulse rate, blood pressure, haematology, blood chemistry, urinalysis, and by occurrence of adverse events.
as §2

[3] = biological target: T1, NK-1 receptor (Homo sapiens, UniProt P25103); test: Antagonism of Substance P-induced venodilation, dorsal hand vein compliance technique; format: in vivo
T1 construct: measuring the antagonism of Substance P-induced venodialation using the hand vein compliance technique; from tissue; host or cells: dorsal hand vein of healthy male volunteers, in vivo
Method: as §1
The participants abstained from alcohol for at least 24 hours and from methylxanthine-containing beverages for at least 12 hours before the measurements of hand vein compliance were made. […] Venodilator responses were investigated in a quiet room maintained at a constant temperature between 23 and 25° C. using the dorsal hand vein compliance technique according to Aellig (See W. H. Aellig, A new technique for recording compliance of human hand veins. 1981. Br J Clin Pharmacol 2004; 58:S768-74) with modifications as described previously (Fricker R, et al., Endothelial venodilator response in carriers of genetic polymorphisms involved in NO synthesis and degradation. Br J Clin Pharmacol 2004; 58:169-77).
Hand vein compliance measurements started in the morning and the participants were asked to remain in a supine position throughout the study. The hand under investigation was placed on a vacuum pillow sloping upwards at an angle of 30° from horizontal. All vasoactive compounds were administered through a butterfly needle at a constant flow rate (0.25 ml·min^−1) into the vein under investigation. In each participant, the same hand vein was used for both study phases. Changes of the diameter of the vein were recorded using a linear variable differential transformer (Schaevitz®, Type 100 MHR, Pennsauken, N.J., USA) with a freely movable core (weight 0.5 g) resting over the centre of the vein under investigation. Transformer signals were amplified by a Schaevitz® CAS series signal conditioner and the output was recorded on a strip-chart recorder (LKB 2210 recorder, LKB Produkter AB®, Bromma, Sweden) at a paper speed of 0.5 cm·min^−1. The difference between the position of the core before and during inflation of a sphygmomanometer cuff on the same upper arm to 40 mmHg gave a measure of the diameter changes under a given congestion pressure. Peak heights on the strip-chart recorder were linearly proportional to the movement of the core and were measured manually in units according to standard operating procedures.
After having installed the tripod for hand vein compliance technique and having established a stable initial baseline with […] defined as 100% relaxation, increasing dose-rates of the selective α1-adrenoceptor agonist phenylephrine (Neo-Synephrine®, Abbott Laboratories, North Chicago, USA; dosages: 1.25−≦8000 ng·min^−1) were locally infused to constrict the vein by about 80%. This preconstriction baseline was defined as 0%, and the effect of subsequently administered vasodilators was expressed in percentage changes from the difference between the initial baseline diameter during normal saline and the diameter during stable preconstriction.
Once preconstriction was stable, Substance P (Calbiochem/Novabiochem AG, Läufelfingen, Switzerland) was co-administered until the maximal venodilation was reached (approximately 7-10 minutes). To prevent the peptide from sticking to tubing and syringes, substance P was dissolved in a 4% gelatine solution. Based on the experience of previous experiments in this setting, a Substance P dose rate of (1.5 pmol/min) was selected. If a participant reacted with less than 50% venodilation to the dose of 1.5 pmol/min, the dose was doubled to 3 pmol/min.
Next, Compound D as described herein (250 mg and 25 mg quinine sulphate) or placebo (25 mg quinine sulphate), both dissolved in water for injection and mint syrup, were administered as an oral solution. […]

[4] = 250 mg oral, among participants

T1 sequence (P25103 whole entry): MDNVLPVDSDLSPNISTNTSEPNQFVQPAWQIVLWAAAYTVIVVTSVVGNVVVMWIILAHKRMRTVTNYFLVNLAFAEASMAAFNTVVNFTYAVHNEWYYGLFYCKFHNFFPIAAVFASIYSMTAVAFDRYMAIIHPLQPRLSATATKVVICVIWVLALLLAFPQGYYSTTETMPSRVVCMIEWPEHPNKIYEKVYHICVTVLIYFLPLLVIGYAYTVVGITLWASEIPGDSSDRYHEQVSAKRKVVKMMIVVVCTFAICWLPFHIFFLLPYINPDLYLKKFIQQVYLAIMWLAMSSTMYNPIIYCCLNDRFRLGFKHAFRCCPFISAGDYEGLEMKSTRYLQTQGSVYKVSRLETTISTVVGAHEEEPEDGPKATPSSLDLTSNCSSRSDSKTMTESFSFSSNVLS

O=C(c1cc(C(F)(F)F)cc(C(F)(F)F)c1)N1CCN(Cc2n[nH]nc2CN2CCOCC2)C[C@H]1Cc1c[nH]c2ccccc12 [Compound D, (2R)-1-[3,5-bis(trifluoromethyl)benzoyl]-2-(1H-indol-3-ylmethyl)-4-{[5-(morpholinomethyl)-2H-1,2,3-triazol-4-yl]methyl}piperazine-dihydrochloride]
time to peak plasma concentration ([1]; 250 mg oral solution, single dose, 18 healthy participants, mean±SEM): ≤ 47 ± 3 min | plasma detectability 24 h after dosing (terminal phase) ([1]; 250 mg oral, 24 h after dosing, lower limit of quantification 0.2 ng/ml): still detectable in low concentrations in all participants | ratio between maximal and minimal value for AUC (inter-individual variability) [1, 4]: 6.3 | ratio between maximal and minimal value for Cmax (inter-individual variability) [1, 4]: 6.5 | half-life ([1]; male, human, plasma, 250 mg oral solution, single dose, 18 healthy participants, mean±SEM): 9.9 ± 1.6 h | AUC(0-inf) ([1]; male, human, plasma, 250 mg oral solution, single dose, 18 healthy participants, mean±SEM, read-out: mean AUC0-∞): 0.183 ± 0.022 µg·h/mL | Cmax ([1]; male, human, plasma, 250 mg oral solution, single dose, 18 healthy participants, mean±SEM, read-out: peak plasma concentration (Cmax)): 0.077 ± 0.009 µg/mL | serious adverse events ([2]; 250 mg oral, 19 participants in safety analysis): No serious adverse event occurred | changes in heart rate, blood pressure, or ECG parameters ([2]; 250 mg oral, single dose): Neither Compound D nor placebo induced significant changes | tolerability ([2]; 250 mg oral, single dose): well tolerated in all participants | adverse events possibly related to the study drug (number) ([2]; 250 mg oral, mild headache, severe headache, cloudy urine, all resolved): 3 | heart rate ([2]; 4.5 h after administration (baseline 60±2; p=0.14)): 63±2 beats/min | diastolic blood pressure ([2]; 4.5 h after administration (baseline 68±3; p=0.12)): 72±2 mmHg | systolic blood pressure ([2]; 4.5 h after administration (baseline 124±3; p=0.10)): 127±2 mmHg | response to SNP (sodium nitroprusside) at the end of the experiment ([3]; 2 μg/min SNP into hand vein after last Substance P infusion, not different from placebo (p=0.69)): 92±9% | maximum antagonizing effect (% antagonism of Substance P-induced venodilation) ([3]; 250 mg oral, 17 healthy participants, mean±SEM, 95% CI 78, 111): 95±8% | Substance P-induced venodilation after administration (versus placebo) ([3]; 250 mg oral, 17 healthy participants, p<0.001 vs placebo): markedly decreased | time of maximum antagonizing effect (mean) ([3]; 250 mg oral, 17 participants, mean±SEM, 95% CI 0.96, 1.98): 1.47 ± 0.24 h | mean AUCe (area under the effect-time curve) ([3]; 250 mg oral, 17 participants, mean±SEM, 95% CI 198, 358, p<0.001 vs placebo): 278±67 %·h | time of maximum antagonizing effect (median) ([3]; 250 mg oral, 17 participants, median): 1.25 h | persistence of antagonistic effect relative to plasma concentration ([3]; 250 mg oral, up to 4.25 h after dosing, counter-clockwise hysteresis): antagonistic effect persisted throughout the study while plasma concentrations declined
